# Read-outs that look alike come from different tables or passages of the source.
# Legend:
# [1] = molecular target: OT-I TCR; assay: SPR steady-state binding of soluble OT-I TCR to immobilised pMHC (H-2Kb) at 37 °C: apparent and active KD; set-up: species or system mouse
# [2] = molecular target: OT-I TCR; assay: SPR binding of OT-I TCR to inactive (denatured or unfolded) pMHC, Bmax constrained to pMHC immobilisation level; set-up: species or system mouse; conditions: unit not printed in the file (text: µM), read-out: KD for inactive pMHC, single experiment
# Target sequence in this assay (as listed by the source): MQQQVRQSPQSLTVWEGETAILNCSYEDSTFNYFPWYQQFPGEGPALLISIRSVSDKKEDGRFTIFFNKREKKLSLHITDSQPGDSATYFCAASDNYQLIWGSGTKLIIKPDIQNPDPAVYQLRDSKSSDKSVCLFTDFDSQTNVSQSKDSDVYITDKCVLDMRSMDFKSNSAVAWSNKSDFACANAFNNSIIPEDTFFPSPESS
# Target sequence in this assay (as listed by the source): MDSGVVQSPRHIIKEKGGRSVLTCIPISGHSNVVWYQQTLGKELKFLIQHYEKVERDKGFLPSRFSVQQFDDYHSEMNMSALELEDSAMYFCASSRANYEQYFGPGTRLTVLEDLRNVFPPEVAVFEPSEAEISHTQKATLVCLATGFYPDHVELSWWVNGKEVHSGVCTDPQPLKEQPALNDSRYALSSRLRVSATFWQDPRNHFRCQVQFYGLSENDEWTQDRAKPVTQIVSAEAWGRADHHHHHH
# [3] = molecular target: OT-I TCR; conditions: 25 °C; ref Alam 95; read-out: Original KD, Alam 95 25ºC; cited from earlier work
# Text: Supplement 44318_2025_644_MOESM5_ESM.zip/KDs - Original vs Revised column.xlsx, sheet "KDs - Original vs Revised colum" | column: Original KD from indicated studies in columns
# [4] = molecular target: OT-I TCR; conditions: ref Alam 99, cited from earlier work
# [5] = system: naive CD8+ T cells from OT-I transgenic mice; conditions: 2D affinity AcKa; ref Huang 2010; cited from earlier work
# Text: This striking observation spur ...
# [6] = system: naive OT-I splenocytes; conditions: relative to OVA (N4) = 1; ref Huang 2010; cited from earlier work
# [7] = molecular target: OT-I TCR; conditions: file OT1 Discrimination Published Original KD; repeated per study block; ref Alam 99, Rosette; cited from earlier work
# Text: Supplement 44318_2025_644_MOESM7_ESM.zip/OT1 Discrimination Published Original KD.csv, table
# [8] = molecular target: OT-I TCR; set-up: method as in Stepanek et al, 2014; conditions: SPR equilibrium binding analysis, 25 °C, mean of two independent replicates; ref Stepanek et al, 2014; cited from earlier work
# [9] = system: OT-I T cells; set-up: method as in Zehn 2009; conditions: relative to OVA (N4) = 1; ref Zehn 2009; cited from earlier work
# [10] = system: naive or anergic mouse OT-I CD8+ T cells; set-up: method as in 2 sources, ref Lo et al, 2023 ||| ref Lo 2023; conditions: relative to OVA (N4) = 1; values with * excluded; ref Lo 2023; cited from earlier work
# [11] = system: OT-I T cells from transgenic mice; set-up: method as in Hogquist 1995; conditions: relative to OVA (N4) = 1; ref Hogquist 1995; cited from earlier work
# [12] = system: pre-selection OT-I double-positive thymocytes; set-up: method as in Daniels 2006; conditions: relative to OVA (N4) = 1; ref Daniels 2006; cited from earlier work
# [13] = molecular target: VSV pMHC: […] on H-2K^b with human beta-2 microglobulin (mouse | human | not stated); assay: SPR
# [14] = system: CD8+ Jurkat cells expressing the OT-I TCR; set-up: method as in Lo 2019; conditions: relative to OVA (N4) = 1; ref Lo 2019; cited from earlier work
# [15] = SPR, single repeats, read-out: KDs active
# [16] = replicate 1 (1st value of the list in KD_active_calculated.csv), 37 °C, unit not given in the file (Table 1: µM), read-out: KD active, single SPR experiment
# [17] = replicate 2 (2nd value of the list), 37 °C, unit inferred, read-out: KD active, single SPR experiment
# [18] = replicate 3 (3rd value of the list), 37 °C, unit inferred, read-out: KD active, single SPR experiment
# [19] = replicate 4 (4th value of the list), 37 °C, unit inferred, read-out: KD active, single SPR experiment
# [20] = replicate 5 (5th value of the list), 37 °C, unit inferred, read-out: KD active, single SPR experiment
# [21] = replicate 6 (6th value of the list), 37 °C, unit inferred, read-out: KD active, single SPR experiment
# [22] = 25 °C, read-out: Original KD, Alam 99 (25ºC)
# [23] = 37 °C, * excluded values, because kinetics showed biphasic behaviour, read-out: Original KD, Alam 99 (37ºC)
Substance,"Kd [1, 16] [µM]","Kd [1, 17] [µM]","Kd [1, 18] [µM]","Kd [1, 19] [µM]","Kd [1, 20] [µM]","Kd [1, 21] [µM]",also measured
RTYTYEKL [Catnb],2040,1880,1900,2040,1950,2380,"Kd [1, 15]: 2040 µM"
"RGYNYEKL [V-OVA, its pMHC is not correctly folded]",,,,,,,"Kd ([2]; replicate 1 (first line of Denatured KD.csv)): 1560 µM; Kd ([2]; replicate 2 (second line of Denatured KD.csv)): 2630 µM; Kd [3]: 29.8 µM; Kd [4, 22]: 18.2 µM; Kd [4, 23]: 12.7 µM; 2D Huang 37¼C (AcKa) [5]: 0.0000029; Potency, Huang 2010 [6]: 417000; Kd [7]: 19 µM"
SIAAFASL [Null],4610,3520,2350,,,,
VGPRYTNL [Mapk1],,4240,1810,2010,,,
SIIEFEKL [Peptide E4],3370,4000,2730,,,,Kd [8]: > 1000 µM
SIIRFEKL [Peptide R4],7640,3760,4270,5030,6430,4280,"Kd [1, 15]: 4270 µM; Kd ([1]; repeat 3, read-out: Revised KDs (This Study)): 4270 µM; Kd ([1]; repeat 6, read-out: Revised KDs (This Study)): 4270 µM; Kd [3]: 57.1 µM; Kd [4, 22]: 40.1 µM; Kd [4, 23]: 26.9 µM; 2D Huang 37¼C (AcKa) [5]: 0.0000017; Potency, Huang 2010 [6]: 167000; Kd [7]: 40.1 µM"
SIIKFEKL [Peptide K4],2710,3290,2190,,,,
ISFKFDHL [Cappa1],2470,6920,9740,3280,2800,2530,
SIIVFEKL [Peptide V4],907,791,628,879,,,"Kd [8]: > 1000 µM; Potency, Zehn 2009 [9]: 680; Potency, Lo 2023 [10]: 2016"
EIINFEKL [Peptide E1],,2800,12400,3870,3520,2180,"Kd ([1]; replicate 7 (7th value of the list), 37 °C, unit inferred, read-out: KD active, single SPR experiment): 2320 µM; Kd ([1]; replicate 8 (8th value of the list), 37 °C, unit inferred, read-out: KD active, single SPR experiment): 3030 µM; Kd ([1]; replicate 9 (9th value of the list), 37 °C, unit inferred, read-out: KD active, single SPR experiment): 7240 µM; Kd ([1]; replicate 10 (10th value of the list), 37 °C, unit inferred, read-out: KD active, single SPR experiment): 2140 µM; Kd [3]: 22.6 µM; Kd [4, 22]: 20.3 µM; 2D Huang 37¼C (AcKa) [5]: 0.0000054; Potency, Hogquist 1995 [11]: 5010000; Potency, Daniels 2006 [12]: 56524; Potency, Huang 2010 [6]: 167000; Kd [7]: 20.3 µM"
"OT-I TCR (soluble; murine variable domains, human constant domains, artificial interchain disulphide)",,,,,,,Kd [13]: 1580 µM
SIIQFERL [Peptide Q4R7],184,273,317,,,,"Kd [8]: 288 µM; Potency, Daniels 2006 [12]: 81; Potency, Lo 2019 [14]: 3.464; Potency, Lo 2023 [10]: 14.78"
ATLVFHNL [Stat3],2270,4730,3740,,,,

# Reference: paper PMC12811252 (The EMBO Journal, 2025)
